Assay results: US6479231B1, “Fluorescence-based assay for the interaction of small molecules with the human renal organic anion transporter 1 (hOAT1)” (Gilead Sciences, Inc., priority 1999, dated 2002)
Read-outs that look alike come from different tables or passages of the source.

Columns and labels:
[1] = target: T1, hOAT1 (Homo sapiens, UniProt Q4U2R8); assay: Fluorescence-based inhibition assay: inhibition of 6-CFL uptake into CHO^hOAT cells; type: cell-based; design: expressed in transfected cells; vector pIRESneo
T1 sequence (Q4U2R8 1-550 isoform Q4U2R8-2): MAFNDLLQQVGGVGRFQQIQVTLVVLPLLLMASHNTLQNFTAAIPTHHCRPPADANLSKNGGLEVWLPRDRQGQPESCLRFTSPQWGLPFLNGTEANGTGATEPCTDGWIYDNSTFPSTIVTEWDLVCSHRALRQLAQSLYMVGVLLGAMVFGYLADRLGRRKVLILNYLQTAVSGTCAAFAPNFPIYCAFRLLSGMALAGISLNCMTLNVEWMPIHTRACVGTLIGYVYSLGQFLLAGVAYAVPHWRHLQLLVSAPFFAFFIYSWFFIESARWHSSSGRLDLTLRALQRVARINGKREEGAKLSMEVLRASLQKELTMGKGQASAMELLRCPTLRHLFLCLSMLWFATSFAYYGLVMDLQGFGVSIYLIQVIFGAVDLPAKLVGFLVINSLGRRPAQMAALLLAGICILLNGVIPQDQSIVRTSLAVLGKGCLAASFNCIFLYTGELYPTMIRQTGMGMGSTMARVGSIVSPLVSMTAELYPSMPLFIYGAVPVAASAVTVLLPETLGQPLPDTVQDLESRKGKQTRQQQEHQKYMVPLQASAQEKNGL

[2] = target: T1, hOAT1; settings: for Vmax of hOAT1-specific transport / Km: room temperature; for Km: read-out: Km of hOAT1-specific transport
Method: First, a time-course of hOAT1-specific uptake of 6-CFL at various concentrations ranging from 0.31 to 20 μM was determined.
Kinetics of 6-CFL transport mediated by hOAT1. (a) Time course of hOAT1-specific uptake of 6-CFL. CHO^pIRES and CHO^hOAT cells in 96-well plates were incubated at room temperature with 6-CFL at concentrations ranging from 0.31 to 20 μM. At specific time points, the uptake was terminated by washing the cells with ice-cold PBS. After cell lysis, the intracellular fluorescence was determined and the net hOAT1-specific uptake was calculated after the subtraction of non-specific background uptake into CHO^pIRES cells determined under the identical conditions. […] (b) Saturation curve of the hOAT1-specific uptake of 6-CFL at 4-min time points. Km and Vmax values were estimated from the double-reciprocal plot (inset).

[3] = target: T1, hOAT1; assay: Fluorescent transport assay: accumulation of fluorescent organic anions in CHO^hOAT vs CHO^pIRES cells; settings: 10 μM fluorescent anion, 10 min, room temperature
[4] = target: T1, hOAT1; assay: Transport kinetics with the radioactive substrates in CHO^hOAT cells; type: cell-based; design: expressed in transfected cells; vector pIRESneo; settings: radiolabeled substrates, 3 min at 37° C, mean ± standard error, three to five experiments
Method: The assays were carried out in 12-well plates with nearly confluent cells seeded 48 hours prior to each experiment. Immediately before the experiment, the cells were washed with PBS pre-warmed to 37° C. Pre-warmed Waymouth buffer ([…]) containing radiolabeled substrate at various concentrations was added to the cells and incubated for 3 min at 37° C. At the end of incubation, the cells were washed 3-times with ice-cold PBS (2 ml/well) and lysed directly on the plate in the presence of 0.4% Triton X-100 (0.5 ml/well) for at least 20 min. Subsequently, the wells were washed with an additional 0.5 ml of the detergent, the lysate and wash were combined, and radioactivity in each sample was determined after adding 6 ml of scintillation fluid (Beckman Instruments, Fullerton, Calif.). Km values were estimated by the linear regression from double reciprocal plots using Enzyme Kinetics software (ChemSW, Fairfield, Calif.).

[5] = 4-min endpoints, double reciprocal plot

CC(C(=O)O)c1cccc(C(=O)c2ccccc2)c1 (centres unmarked) [Ketoprofen]
inhibition of 6-CFL transport (in words) [1]: inhibited the transport of 6-CFL

O=C(O)c1ccc2c(c1)C1(OC2=O)c2ccc(O)cc2Oc2cc(O)ccc21 [6-CFL, 6-carboxyfluorescein]
transport efficiency (Vmax/Km ratio) [2]: comparable to that of PAH | Vmax of hOAT1-specific transport ([2]; 2-min endpoints): 19.7 pmol/10^6 cells·min | Vmax of hOAT1-specific transport [2, 5]: 17.8 pmol/10^6 cells·min | Km ([2]; 2-min endpoints): 3.95 µM | Km [2, 5]: 3.93 µM | accumulation in CHO^hOAT cells relative to control CHO^pIRES cells [3]: approximately 15 fold

Nc1ccn(C[C@H]2COP(=O)(O)CO2)c(=O)n1 [Cyclic prodrug of cidofovir, [((S)-1-2-hydroxy-2-oxo-1,4,2-dioxaphosphorinan-5-yl)methyl]cytosine]
inhibition of 6-CFL transport (in words) [1]: inhibited the transport of 6-CFL | Km [4]: 309 ± 106 µM

Nc1ccn(C[C@@H](CO)OCP(=O)(O)O)c(=O)n1 [Cidofovir, (S)-1-(3-hydroxy-2-phosphonylmethoxypropyl)cytosine]
inhibition of 6-CFL transport (in words) [1]: inhibited the transport of 6-CFL

CC1=C(C(=O)O)N2C(=O)[C@@H](NC(=O)[C@H](N)C3=CCC=CC3)[C@H]2SC1 [Cephradine]
inhibition of 6-CFL transport (in words) [1]: inhibited the transport of 6-CFL

O=C(O)c1ccc2c(c1)C(=O)OC21c2ccc(O)cc2Oc2cc(O)ccc21 [5-CFL, 5-carboxyfluorescein]
hOAT1-mediated transport / accumulation (in words) ([3]; CHO^hOAT and CHO^pIRES cells): accumulated at very low levels both in CHO^hOAT and CHO^pIRES cells

Nc1ncnc2c1ncn2CCOCP(=O)(O)O [Adefovir, 9-(2-phosphonylmethoxyethyl)adenine]
inhibition of 6-CFL transport (in words) [1]: inhibited the transport of 6-CFL | Km [4]: 23.8 ± 4.2 µM
